For this assay, the target named is CDK2 (human) (UniProt P24941). The assay is described as follows: Enzyme Assay.

On to `COC(=O)c1ccc2cc(-c3csc(N(C)S(=O)(=O)c4ccccc4)n3)c(=O)[nH]c2c1`, for which the IC50 was below 1 µM.
In the case of `O=c1[nH]c2cc(CNC3CCCC3)ccc2cc1-c1csc(-c2ccncc2)n1` it was below 1 µM.
In the case of `CC1CN(Cc2ccc3cc(-c4csc(-c5ccncc5)n4)c(=O)[nH]c3c2)CC(C)O1` (stereo unspecified) it was below 1 µM.
In the case of `CCN(CCN(C)C)C(=O)c1ccc2cc(-c3csc(-c4ccncc4)n3)c(=O)[nH]c2c1` it was below 1 µM.
Compound `CCN(CC)Cc1ccc2cc(-c3csc(CS(=O)(=O)c4ccccc4)n3)c(=O)[nH]c2c1` displayed an IC50 below 1 µM.
In the case of `CC1CC(C)CN(Cc2ccc3cc(-c4csc(CS(=O)(=O)c5ccccc5)n4)c(=O)[nH]c3c2)C1` (stereo unspecified) it was below 1 µM; in that of `CCN(CCN(C)C)Cc1ccc2cc(-c3csc(-c4ccncc4)n3)c(=O)[nH]c2c1`, below 1 µM; in that of `CCN(CC)CCOc1cc(-c2nc(-c3cc4ccccc4[nH]c3=O)cs2)ccn1`, below 1 µM.
The same measure for `CC1CN(Cc2ccc3cc(-c4csc(CS(=O)(=O)c5ccccc5)n4)c(=O)[nH]c3c2)CCN1` (stereo unspecified): below 1 µM; for `CCc1cc(-c2nc(-c3cc4cc(Cl)ccc4[nH]c3=O)cs2)ccn1`: below 1 µM; for `COc1ccc2cc(-c3csc(-c4ccnc(Cl)c4)n3)c(=O)[nH]c2c1`: below 1 µM.
The same measure for `Nc1ccc(-c2nc(-c3cc4ccccc4[nH]c3=O)cs2)cc1`: below 1 µM.
In turn, `CN1CCN(C(=O)c2ccc3cc(-c4csc(N(C)S(=O)(=O)c5ccccc5)n4)c(=O)[nH]c3c2)CC1` gave an IC50 below 1 µM.
In the case of `COc1cc2[nH]c(=O)c(-c3csc(-c4ccncc4)n3)c(N)c2cc1OC` it was below 1 µM; in that of `O=c1[nH]c2cc(CO)ccc2cc1-c1csc(-c2ccncc2)n1`, below 1 µM.
The same measure for `Nc1nc(-c2ccncc2)ncc1-c1nc(-c2cc3ccccc3[nH]c2=O)cs1`: below 1 µM; for `CCN(CC)C(=O)c1cccc2[nH]c(=O)c(-c3csc(-c4ccncc4)n3)cc12`: below 1 µM.
In the case of `O=C(c1ccc2cc(-c3csc(CS(=O)(=O)c4ccccc4)n3)c(=O)[nH]c2c1)N1CCCCC1` it was below 1 µM; in that of `O=c1[nH]c2ccccc2cc1-c1csc(-c2cccnc2)n1`, below 1 µM; in that of `O=c1ccc(-c2nc(-c3cc4ccccc4[nH]c3=O)cs2)c[nH]1`, below 1 µM.
Turning to `CN(c1nc(-c2cc3ccccc3[nH]c2=O)cs1)S(=O)(=O)c1ccc(Br)cc1`, the IC50 was below 1 µM.
In the case of `O=c1[nH]c2ccccc2c(O)c1-c1csc(-c2ccncc2)n1` it was below 1 µM; in that of `O=c1[nH]c2ccccc2cc1-c1csc(-c2cccc(Cl)c2Cl)n1`, below 1 µM.
Take `O=c1[nH]c2ccc(F)cc2cc1-c1csc(-c2ccncc2)n1`: the IC50 was below 1 µM.
The same measure for `CCN(CC)CCN(C)Cc1ccc2cc(-c3csc(-c4ccncc4)n3)c(=O)[nH]c2c1`: below 1 µM.
The same measure for `O=c1[nH]c2cc(CN3CCC3)ccc2cc1-c1csc(-c2ccncc2)n1`: below 1 µM.
In the case of `O=c1[nH]c2cc(C(F)(F)F)ccc2cc1-c1csc(CS(=O)(=O)c2ccccc2)n1` it was below 1 µM.
As to `CCN(CC)CCN(C)c1ncc2cc(-c3csc(-c4ccncc4)n3)c(=O)[nH]c2n1`, the IC50 is below 1 µM.
Consider `Nc1c(-c2csc(-c3ccncc3)n2)c(=O)[nH]c2ccc(N3CCCCC3)cc12`, for which the half-inhibitory concentration (IC50) is below 1 µM.
In the case of `CC1CCCN(Cc2ccc3cc(-c4csc(CS(=O)(=O)c5ccccc5)n4)c(=O)[nH]c3c2)C1` (stereo unspecified) it was below 1 µM.
The same measure for `CN(c1nc(-c2cc3ccc(C(=O)O)cc3[nH]c2=O)cs1)S(=O)(=O)c1ccccc1`: below 1 µM.
The same measure for `O=c1[nH]c2cc3c(cc2cc1-c1csc(-c2ccncc2)n1)OCO3`: below 1 µM; for `CSc1ncc2cc(-c3csc(-c4ccncc4)n3)c(=O)[nH]c2n1`: below 1 µM; for `O=c1[nH]c2cc(CN3CCCCC3)ccc2cc1-c1csc(CS(=O)(=O)c2ccccc2)n1`: below 1 µM.
Compound `O=c1[nH]c2ccccc2cc1-c1csc(-c2ccc(O)cc2)n1` gave an IC50 below 1 µM.
In the case of `COC(=O)c1cccc2[nH]c(=O)c(-c3csc(-c4ccncc4)n3)cc12`, the IC50 was below 1 µM.
In the case of `O=c1[nH]c2ccccc2cc1-c1csc(-c2ccnc(N3CCCCC3)c2)n1` it was below 1 µM; in that of `O=c1[nH]c2ccccc2cc1-c1csc(-c2ccncc2)n1`, below 1 µM; in that of `O=c1[nH]c2cc(CN3CCC(O)CC3)ccc2cc1-c1csc(-c2ccncc2)n1`, below 1 µM.
In the case of `COc1ccc2cc(-c3csc(C(C)(C)S(=O)(=O)c4ccccc4)n3)c(=O)[nH]c2c1` it was below 1 µM; in that of `O=C(c1ccc2cc(-c3csc(CS(=O)(=O)c4ccccc4)n3)c(=O)[nH]c2c1)N1CCOCC1`, below 1 µM.
As for `COc1ccc(-c2nc(-c3cc4ccccc4[nH]c3=O)cs2)cn1`, the IC50 was below 1 µM.
The same measure for `CC(C)(c1nc(-c2cc3ccccc3[nH]c2=O)cs1)S(=O)(=O)c1ccccc1`: below 1 µM.
For `O=c1[nH]c2ccccc2cc1-c1nc(-c2cccc([N+](=O)[O-])c2)cs1`, the IC50 was below 1 µM.
The same measure for `CC(C)N(C)Cc1ccc2cc(-c3csc(CS(=O)(=O)c4ccccc4)n3)c(=O)[nH]c2c1`: below 1 µM; for `O=c1[nH]c2ccccc2cc1-c1csc(C[S+]([O-])c2ccccc2)n1` (stereo unspecified): below 1 µM.
`O=c1[nH]c2cc(CN3CCC(O)C3)ccc2cc1-c1csc(-c2ccncc2)n1` (stereo unspecified): the IC50 is below 1 µM.
The same measure for `O=c1[nH]c2cc(CN3CCCCC3)ccc2cc1-c1csc(-c2ccncc2)n1`: below 1 µM.
In the case of `O=c1[nH]c2cc(C(F)(F)F)ccc2cc1-c1csc(-c2ccncc2)n1` it was below 1 µM.
The same measure for `Nc1c(-c2csc(-c3ccncc3)n2)c(=O)[nH]c2ccccc12`: below 1 µM.
As for `CC1CC(C)CN(Cc2ccc3cc(-c4csc(-c5ccncc5)n4)c(=O)[nH]c3c2)C1` (stereo unspecified), the concentration for half-maximal inhibition (IC50) was below 1 µM.
Turning to `CCN(CC)Cc1ccc2cc(-c3csc(-c4ccncc4)n3)c(=O)[nH]c2c1`, the IC50 is below 1 µM.
The same measure for `CC1CN(Cc2ccc3cc(-c4csc(-c5ccncc5)n4)c(=O)[nH]c3c2)CCN1` (stereo unspecified): below 1 µM.
In the case of `CN(c1nc(-c2cc3ccccc3[nH]c2=O)cs1)S(=O)(=O)c1cccc(F)c1` it was below 1 µM; in that of `CN1CCN(C(=O)c2ccc3cc(-c4csc(-c5ccncc5)n4)c(=O)[nH]c3c2)CC1`, below 1 µM.
The same measure for `O=c1[nH]c2ccccc2cc1-c1csc(-c2ccnc(OCCN3CCCCC3)c2)n1`: below 1 µM; for `CCc1cc(-c2nc(-c3cc4ccccc4[nH]c3=O)cs2)ccn1`: below 1 µM.
Regarding `CC(C)CNCc1ccc2cc(-c3csc(-c4ccncc4)n3)c(=O)[nH]c2c1`, the IC50 was below 1 µM.
The same measure for `O=c1[nH]c2cc(OCCN3CCOCC3)ccc2cc1-c1csc(-c2ccncc2)n1`: below 1 µM; for `Nc1c(-c2csc(-c3ccncc3)n2)c(=O)[nH]c2ccc(Cl)cc12`: below 1 µM; for `O=c1[nH]c2cc(C(F)(F)F)ccc2cc1-c1csc(-c2ccc3c(c2)OCO3)n1`: below 1 µM.

In general, IC50 refers to the point on the concentration scale where inhibition reaches its midpoint. Low readings indicate inhibition by little substance, high ones a need for much substance.

For the origin of these results see the Kinase Knowledgebase extract (Sharma et al. 2016).
